In ChEMBL document CHEMBL4622839, “Induction of enantio-selective apoptosis in human leukemia HL-60 cells by (S)-erypoegin K, an isoflavone isolated from Erythrina poeppigiana” (Bioorg Med Chem, 2020):
pIC50: −log10 of the molar value. Activity calls are given as the source filed them. The calls are words filed in the database; no cut-off is given here.

Assays:
HL-60 [1] = assay: Antiproliferative activity against human HL60 cells assessed as inhibition of cell viability incubated for 48 hrs by MTS assay; type: functional, cell-based; conditions: for pIC50: HL-60, 48 h
Lactoylglutathione lyase = Lactoylglutathione lyase (Homo sapiens, UniProt Q04760); assay: Inhibition of recombinant human Glyoxalase-1 expressed in Escherichia coli BL21 (DE3) assessed as inhibition of S-D-lactoylglutathione formation using MG and reduced glutathione as substrate measured for 2 mins by spectrophotometric method
Homo sapiens = organism: Homo sapiens; assay: Selectivity index, ratio of IC50 for recombinant human Glyoxalase-1 expressed in Escherichia coli BL21 (DE3) to IC50 for antiproliferative activity against human HL60 cells
HL-60 [2] = assay: Antiproliferative activity against human HL60 cells assessed as inhibition of cell viability up to 50 uM incubated for 48 hrs by MTS assay; type: functional, cell-based
HL-60 [3] = assay: Induction of apoptosis in human HL60 cells assessed as nuclear condensation/fragmentation at 5 uM incubated for 6 hrs by Hoechst 33342 staining-based fluorescence microscopic method; type: functional, cell-based
HL-60 [4] = assay: Induction of apoptosis in human HL60 cells assessed as DNA ladder formation at 1 to 3 uM incubated for 5 hrs by agarose gel electrophoresis method; type: functional, cell-based
HL-60 [5] = assay: Induction of apoptosis in human HL60 cells assessed as increase in MG level accumulation at 1 to 3 uM incubated for 8 to 24 hrs by HLPC analysis; type: functional, cell-based
HL-60 [6] = assay: Induction of apoptosis in human HL60 cells assessed as caspase 3 activation at 0.1 to 0.5 uM incubated up to 24 hrs by flurometric analysis; type: functional, cell-based
HL-60 [7] = assay: Induction of apoptosis in human HL60 cells assessed as caspase 9 activation at 0.1 to 0.5 uM incubated up to 24 hrs by flurometric analysis; type: functional, cell-based

Chain of Lactoylglutathione lyase (Q04760 whole entry): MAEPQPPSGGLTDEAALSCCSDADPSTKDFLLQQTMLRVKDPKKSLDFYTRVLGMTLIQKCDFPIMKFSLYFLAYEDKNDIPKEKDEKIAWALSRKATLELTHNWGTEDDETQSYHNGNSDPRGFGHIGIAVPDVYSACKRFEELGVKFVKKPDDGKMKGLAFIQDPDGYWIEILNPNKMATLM

| SMILES | pIC50 (HL-60 [1]) | pIC50 (Lactoylglutathione lyase) | Ratio IC50 (Homo sapiens) | Activity (HL-60 [1]) | Activity (HL-60 [2]) | Activity (HL-60 [3]) | Activity (HL-60 [4]) | Activity (HL-60 [5]) | Activity (HL-60 [6]) | Activity (HL-60 [7]) |
| --- | --- | --- | --- | --- | --- | --- | --- | --- | --- | --- |
| CC(C)(O)C1Cc2c(cc(O)c3c(=O)c(-c4ccc(O)cc4)coc23)O1 (racemic) | 6.76 | 3.96 | 625 | – | – | – | – | – | – | – |
| CC(C)(O)[C@H]1Cc2c(cc(O)c3c(=O)c(-c4ccc(O)cc4)coc23)O1 | – | 4.00 | – | inactive | inactive | inactive | inactive | inactive | inactive | inactive |
| CC(C)(O)[C@@H]1Cc2c(cc(O)c3c(=O)c(-c4ccc(O)cc4)coc23)O1 | 7.05 | 4.00 | – | – | – | Active | Active | – | – | – |
